One may read the melting point as the temperature of the solid-liquid transition.

Some results are limits rather than exact numbers.

`COCCOc1nc(-c2ccc(=O)n(C(C)C)n2)c(-c2ccccc2)nc1N` [Example 166, 6-[5-amino-6-(2-methoxyethoxy)-3-phenyl-2-pyrazinyl]-2-isopropyl-3(2H)-pyridazinone] displayed a melting point of 128 to 130 °C.

In turn, `CC(C)n1nc(-c2nc(OCCOC(C)(C)C)c(N)nc2-c2ccccc2)ccc1=O` [Example 167, 6-[5-amino-6-(2-tert-butoxyethoxy)-3-phenyl-2-pyrazinyl]-2-isopropyl-3(2H)-pyridazinone] yielded a melting point of 163 to 165 °C.

As for `CC(C)n1nc(-c2nc(OCCOCc3ccccc3)c(N)nc2-c2ccccc2)ccc1=O` [Example 168, 6-{5-amino-6-[2-(benzyloxy)ethoxy]-3-phenyl-2-pyrazinyl}-2-isopropyl-3(2H)-pyridazinone], the melting point was 120 to 122 °C.

`CC(C)n1nc(-c2nc(OCCCCOCc3ccccc3)c(N)nc2-c2ccccc2)ccc1=O` [Example 169, 6-{5-amino-6-[4-(benzyloxy)butoxy]-3-phenyl-2-pyrazinyl}-2-isopropyl-3(2H)-pyridazinone] displayed a melting point of 96.5 to 97.5 °C.

As to `CC(C)n1nc(-c2nc(OCCN(C)C)c(N)nc2-c2ccccc2)ccc1=O` [Example 170, 6-{5-amino-6-[2-(dimethylamino)ethoxy]-3-phenyl-2-pyrazinyl}-2-isopropyl-3(2H)-pyridazinone], the melting point was 136 to 137.5 °C.

`CC(C)n1nc(-c2nc(OCC(F)(F)F)c(N)nc2-c2ccccc2)ccc1=O` [Example 171, 6-[5-amino-3-phenyl-6-(2,2,2-trifluoroethoxy)-2-pyrazinyl]-2-isopropyl-3(2H)-pyridazinone]: the melting point lay in the range of 233 to 235 °C.

In turn, `CC(C)n1nc(-c2nc(OCCN3CCOCC3)c(N)nc2-c2ccccc2)ccc1=O` [Example 172, 6-{5-amino-6-[2-(4-morpholinyl)ethoxy]-3-phenyl-2-pyrazinyl}-2-isopropyl-3(2H)-pyridazinone] gave a melting point of 139 to 143 °C.

On to `CC(C)n1nc(-c2[nH]c(=O)c(N)nc2-c2ccccc2)ccc1=O` [Example 174, 6-(5-amino-6-oxo-3-phenyl-1,6-dihydro-2-pyrazinyl)-2-isopropyl-3(2H)-pyridazinone], for which the melting point is over 250 °C.

The compound `CC(C)n1nc(-c2nc(OCCc3ccccc3)c(N)nc2-c2ccccc2)ccc1=O` [Example 174, 6-[5-amino-3-phenyl-6-(2-phenylethoxy)-2-pyrazinyl]-2-isopropyl-3(2H)-pyridazinone] returned a melting point of 173 to 176 °C.

For the compound `CC(C)n1nc(-c2nc(OCCCc3ccccc3)c(N)nc2-c2ccccc2)ccc1=O` [Example 175, 6-[5-amino-3-phenyl-6-(3-phenylpropoxy)-2-pyrazinyl]-2-isopropyl-3(2H)-pyridazinone], the melting point fell in the range of 105 to 106.5 °C.

Turning to `CC(C)n1nc(-c2nc(OC3CCN(Cc4ccccc4)C3)c(N)nc2-c2ccccc2)ccc1=O` (centres unmarked) [Example 176, 6-{5-amino-6-[(1-benzyl-3-pyrrolidinyl)oxy]-3-phenyl-2-pyrazinyl}-2-isopropyl-3(2H)-pyridazinone], the melting point is 179 to 181 °C.

Turning to `CC(C)n1nc(-c2nc(OC3CCN(Cc4ccccc4)CC3)c(N)nc2-c2ccccc2)ccc1=O` [Example 178, 6-{5-amino-6-[(1-benzyl-4-piperidinyl)oxy]-3-phenyl-2-pyrazinyl}-2-isopropyl-3(2H)-pyridazinone], the melting point was in the range of 148 to 150.5 °C.

Consider `COCCOc1nc(-c2ccc(=O)n(C)n2)c(-c2ccccc2)nc1N` [Example 180, 6-[5-amino-6-(2-methoxyethoxy)-3-phenyl-2-pyrazinyl]-2-methyl-3(2H)-pyridazinone], for which the melting point was 139 to 141 °C.

`Cn1nc(-c2nc(OCCN3CCOCC3)c(N)nc2-c2ccccc2)ccc1=O` [Example 181, 6-{5-amino-6-[2-(4-morpholinyl)ethoxy]-3-phenyl-2-pyrazinyl}-2-methyl-3(2H)-pyridazinone] had a melting point of 185 to 187 °C.

The compound `Cn1nc(-c2nc(OCc3ccccc3)c(N)nc2-c2ccccc2)ccc1=O` [Example 182, 6-[5-amino-6-(benzyloxy)-3-phenyl-2-pyrazinyl]-2-methyl-3(2H)-pyridazinone] displayed a melting point of 185 to 187 °C.

As for `Cn1nc(-c2nc(OCCCc3ccccc3)c(N)nc2-c2ccccc2)ccc1=O` [Example 183, 6-[5-amino-3-phenyl-6-(3-phenylpropoxy)-2-pyrazinyl]-2-methyl-3(2H)-pyridazinone], the melting point is 91 to 94 °C.

As to `Cn1nc(-c2nc(OC3CCN(Cc4ccccc4)CC3)c(N)nc2-c2ccccc2)ccc1=O` [Example 185, 6-{5-amino-6-[(1-benzyl-4-piperidinyl)oxy]-3-phenyl-2-pyrazinyl}-2-methyl-3(2H)-pyridazinone], the melting point was in the range of 147 to 149 °C.

Regarding `Cn1nc(-c2nc(Oc3ccc(F)cc3)c(N)nc2-c2ccccc2)ccc1=O` [Example 186, 6-[5-amino-6-(4-fluorophenoxy)-3-phenyl-2-pyrazinyl]-2-methyl-3(2H)-pyridazinone], the melting point is 229 to 231 °C.

With `Cn1nc(-c2nc(O)c(N)nc2-c2ccccc2)ccc1=O` [Example 187, 6-(5-amino-6-hydroxy-3-phenyl-2-pyrazinyl)-2-methyl-3(2H)-pyridazinone], the melting point is over 250 °C.

In turn, `Cn1nc(-c2nc(OCCc3ccccc3)c(N)nc2-c2ccccc2)ccc1=O` [Example 187, 6-[5-amino-3-phenyl-6-(2-phenylethoxy)-2-pyrazinyl]-2-methyl-3(2H)-pyridazinone] came in with a melting point of 156 to 159 °C.

For `CC(C)n1nc(-c2nc(C#N)c(N)nc2-c2ccccc2Br)ccc1=O` [Example 188, 3-amino-5-(2-bromophenyl)-6-(1-isopropyl-6-oxo-1,6-dihydro-3-pyridazinyl)-2-pyrazinecarbonitrile], the melting point lay within 240 to 243 °C.

In turn, `CC(C)n1nc(-c2nc(C#N)c(N=CN(C)C)nc2-c2ccccc2Br)ccc1=O` [Example 188, N′-[6-(2-bromophenyl)-3-cyano-5-(1-isopropyl-6-oxo-1,6-dihydro-3-pyridazinyl)-2-pyrazinyl]-N,N-dimethylimidoformamide] gave a melting point of 197 to 199 °C.

With `CC(C)n1nc(-c2nc(C(N)=O)c(N)nc2-c2ccccc2Br)ccc1=O` [Example 190, 3-amino-5-(2-bromophenyl)-6-(1-isopropyl-6-oxo-1,6-dihydro-3-pyridazinyl)-2-pyrazinecarboxamide], the melting point was 132 to 135 °C.

In the case of `CC(C)n1nc(-c2nc(C(N)=O)c(N)nc2-c2cccs2)ccc1=O` [Example 191, 3-amino-6-(1-isopropyl-6-oxo-1,6-dihydro-3-pyridazinyl)-5-(2-thienyl)-2-pyrazinecarboxamide], the melting point was 238 to 240 °C.

Regarding `CC(C)n1nc(-c2nc(C(N)=O)c(N)nc2-c2ccccc2Br)ccc1=O` [Example 192, 3-amino-5-(2-bromophenyl)-6-(1-isopropyl-6-oxo-1,6-dihydro-3-pyridazinyl)-2-pyrazinecarboxamide], the melting point was in the range of 240 to 243 °C.

Consider `COc1ccc(-c2nc(N)c(C(N)=O)nc2-c2ccc(=O)n(C(C)C)n2)cn1` [Example 194, 3-amino-6-(1-isopropyl-6-oxo-1,6-dihydro-3-pyridazinyl)-5-(6-methoxy-3-pyridyl)-2-pyrazinecarboxamide], for which the melting point was in the range of 250 to 252 °C.

(Values after patent US7265120B2, “Pyrazine derivatives and pharmaceutical use thereof” (Astellas Pharma Inc., priority 2004, dated 2007).)
